# Test results as given in patent US4252798A, “Reversible male contraception” (The Upjohn Company, priority 1980, dated 1981).
# What was measured:
# [1] = tested on: healthy male mammal post-puberty (man); experiment: Male contraception by oral administration to man; type: in vivo
# Description: A 60 kg. Person who is the admitted parent of 2 children is given one 50 mg. tablet daily of 17β-methoxy-2α-methyl-5α-androstan-3-one.
# A 60 kg. Person is treated daily with one teaspoonful of a suspension of 2α,3α-epithio-17β-ethoxy-5α-androstane (100 mg./ml.).
# [2] = tested on: rat ABP (androgen binding protein) and rat AR (androgen receptor); experiment: ABP/AR ratio: relative affinity (vs DHT) for rat ABP and rat AR; details: ratio of relative affinity for rat ABP to relative affinity for rat AR, each compared to DHT
# Text: The present invention includes steroids which have a high affinity for rat ABP (androgen binding protein) as compared to DHT (dihydrotestosterone, 17β-hydroxy-5α-androst-3-one). N. A. Musto et al. in Endo. Res. Comm. 4, 147 (1977) have described a procedure for isolation and purification of rat ABP. Utilizing the purified rat ABP, and following the procedure of E. M. Ritzen et al. described in J. Biol. Chem. 249, 6597 (1974), the relative affinity of various non-estrogenic-type steroids can readily be determined. The dissociation constant (Kd) measures the affinity of a compound for a protein. The dissociation constant for DHT and the non-estrogenic-type steroids is determined. […]
# E. M. Wilson and F. S. French in the J. Biol. Chem. 251, 5620 (1976) have described a procedure for isolation and partial purification of rat AR. Utilizing the rat AR and following the procedure of G. Verhoeven et al. described in Steroids 26, 149 (1975) the relative affinity of various steroids can readily be determined. The dissociation constant for DHT and non-estrogenic steroids is determined. […] D. J. Tindall, et al., in the International Journal of Andrology, Supplement 2 (1978) set forth the preferred method for determining the relative affinities of a steroid for ABP and AR from which the ABP/AR ratio can be calculated. […]
# tom = experiment: Male contraception by daily treat given to tom; type: in vivo, tom (cat)
# Description: A 6 kg. tom who has previously sired offspring is given a treat daily containing 20 mg. of 17β-methoxy-2α-methyl-5α-androstan-3-one. […] Eighty days following cessation of administration of the treat, the tom, upon sexual intercourse, fertilizes the same ovulating female at the time of her estrus.
# men = details: cited from earlier work
# normal men = details: six normal men; Morse et al., J. Clin. Endocrinol. Metab. 37, 882 (1973); cited from earlier work
structure (smiles),measurement,setting,value
"CCO[C@H]1CC[C@H]2[C@@H]3CC[C@H]4C[C@@H]5S[C@@H]5C[C@]4(C)[C@H]3CC[C@]12C [2α,3α-epithio-17β-ethoxy-5α-androstane]",fertilization of a fertile female following sexual intercourse,"[1]; Example 5: 60 one teaspoonful daily of suspension (100 mg./ml.), after 60 days",does not fertilize
same,fertility on further administration,[1]; Example 5: further administration,remains infertile
"CO[C@H]1CC[C@H]2[C@@H]3CC[C@H]4C[C@@H]5S[C@@H]5C[C@]4(C)[C@H]3CC[C@]12C [2α,3α-epithio-17β-methoxy-5α-androstane]",fertilization of a fertile female following sexual intercourse,"[1]; Example 3: 70 one-half teaspoonful/day of elixir (100 mg./ml.), after 60 days",does not fertilize
same,fertility on continued administration,[1]; Example 3: continued daily elixir,remains infertile
"C[C@@H]1C[C@@]2(C)C(=CC1=O)C[C@@H](C)[C@H]1[C@@H]3CC[C@H](O)[C@@]3(C)CC[C@@H]12 [2α,7α-dimethyltestosterone]",ABP/AR ratio,[2],about 6.0
CO[C@H]1CC[C@H]2[C@@H]3CC[C@H]4CC(=O)[C@H](C)C[C@]4(C)[C@H]3CC[C@]12C [17β-methoxy-2α-methyl-5α-androstan-3-one],fertilization of a fertile female following sexual intercourse,[1]; Example 1: 70 10 mg tablet twice daily for about 100 days,does not fertilize
same,fertility on continued administration,[1]; Example 1: continued twice daily,remains infertile
same,fertilization of a fertile female following sexual intercourse,[1]; Example 2: 80 200 mg capsule four times daily for 60 days,does not fertilize
same,fertility on continued administration,[1]; Example 2: continued 4 times daily,remains infertile
same,fertility on continued administration,[1]; Example 4: continued daily,remains infertile
same,fertilization of an ovulating female at estrus following sexual intercourse,"tom; Example 6: 6 kg tom, treat with 20 mg daily, after 60 days",does not fertilize
same,fertility on continuous daily administration,tom; Example 6: continued daily treat,remains infertile
same,fertilization of the same ovulating female after cessation (reversibility),tom; Example 6: eighty days following cessation of the treat,fertilizes
CCCCCCC(=O)O[C@H]1CC[C@H]2[C@@H]3CCC4=CC(=O)CC[C@]4(C)[C@H]3CC[C@]12C [testosterone enanthate],effect on sperm in men who acknowledged paternity,"men; Steinberger et al., Fertility and Sterility 27, 216 (1976)",azoospermia
same,sperm count,"men; seven men, Mauss et al., Acta. Endocrinol. 78, 373 (1975)","less than 3,000,000 sperm/ml"
CCC(=O)O[C@H]1CC[C@H]2[C@@H]3CCC4=CC(=O)CC[C@]4(C)[C@H]3CC[C@]12C [testosterone propionate],sperm concentration,normal men,sharp drop
same,testicular testosterone,normal men,decrease
